Reference: ChEMBL document CHEMBL2028040, “Malaria Box”

Tests used:
Plasmodium falciparum = experiment: MMV: Inhibition of Plasmodium falciparum 3D7 at 5uM compound concentration.; format: functional
Trypanosoma cruzi = experiment: MMV: Inhibition of Trypanosoma cruzi (Tulahuen C4 LacZ) (Chagas in vitro).; format: functional, organism-based
[1] = system: Trypanosoma brucei brucei; experiment: MMV: Inhibition of Trypanosoma brucei brucei (Squib 427) (HAT in vitro).; format: functional, organism-based
[2] = system: Trypanosoma brucei rhodesiense; experiment: MMV: Inhibition of Trypanosoma brucei rhodesiense (STIB 900) (HAT in vitro).; format: functional, organism-based
Leishmania infantum = experiment: MMV: Inhibition of Leishmania infantum (MHOM/MA/BE/67) in vitro.; format: functional, organism-based
[3] = MMV: Cytotoxicity against human fibroblasts (MRC-5) cells.; conditions: MRC-5 cells (human fibroblasts)

IC50 (Trypanosoma cruzi) [µM] | IC50 [1] [µM] | IC50 [2] [µM] | IC50 (Leishmania infantum) [µM] | SMILES | inhibition at 5 µM (Plasmodium falciparum) [%] | IC50 [3] [µM]
> 32 | > 32 | > 32 | > 32 | N=c1c2ccccc2nnn1-c1cccc(C(F)(F)F)c1 | 83 | > 32
> 32 | > 32 | > 32 | > 32 | COc1ccc(C(=O)Nc2ccc(Cl)cc2C(=O)Nc2ccncc2)cc1 | 93 | > 32
> 32 | 14.9 | 15.3 | > 32 | CCOc1ccc(-c2nc(NC(=O)c3cccc(S(C)(=O)=O)c3)sc2C)cc1 | 95 | > 32
0.963 | 1.15 | 1.05 | > 32 | Oc1c(CN2CCN(c3ccccc3F)CC2)cc(Br)c2cccnc12 | 91 | 5.58
19.7 | > 32 | 27.6 | > 32 | COc1ccc(N2CCN(C(CNC(=O)CC(C)(C)C)c3ccc4c(c3)OCO4)CC2)cc1 (stereo not drawn) | 95 | > 32
11.8 | 16.4 | 3.14 | > 32 | CC(C)(C)C(=O)Nc1ccc(C(=O)Nc2cccc(-c3nc4ccccc4[nH]3)c2)cc1 | 91 | 17.9
0.899 | 16.2 | 16.2 | > 32 | COc1ccccc1N1CCN(C(CNS(=O)(=O)c2ccc(Cl)cc2)c2cccnc2)CC1 (stereo not drawn) | 93 | > 32
15.3 | > 32 | 25.3 | > 32 | FC(F)(F)c1cccc(Nc2nc(-c3ccccc3)nc3ncccc23)c1 | 74 | > 32
2.32 | 14.6 | 16 | > 32 | COc1ccc(C)c2sc(N(Cc3cccnc3)C(=O)c3ccc(C#N)cc3)nc12 | 91 | > 32
16.1 | 15.6 | 16 | 16 | Oc1ccc(Cl)cc1CNc1nc2ccccc2[nH]1 | 95 | 15.9
> 32 | > 32 | > 32 | > 32 | O=C(Nc1ccccc1O)c1ccc(Oc2cccc(C(=O)Nc3ccccc3O)c2)cc1 | 91 | > 32
> 32 | > 32 | > 32 | 16.2 | COc1cccc(C(=O)Nc2ccc(-c3nc4ccccc4[nH]3)cc2)c1 | 83 | > 32
> 32 | > 32 | > 32 | > 32 | COc1ccc(-c2cc3c(nn2)-c2ccccc2C3=O)cc1 | 97 | > 32
4.26 | 3.85 | 4 | 4.76 | COc1ccc(C(O)(CCC(C)C)C(CN2CCOCC2)c2ccc(Cl)cc2)cc1 (stereo not drawn) | 97 | 10.8
> 32 | > 32 | > 32 | > 32 | CCC(=O)Nc1nnc(Cc2ccc(OC)c(OC)c2)s1 | 47 | > 32
> 32 | > 32 | > 32 | > 32 | O=C(Nc1ccc(Cl)cc1C(=O)Nc1ccncc1)c1ccc(Cl)cc1Cl | 94 | > 32
6.29 | 5.81 | 4.03 | > 32 | Cc1ccc(NC(=O)Nc2cccc(Cl)c2)cc1F | 52 | > 32

SMILES | IC50 (Trypanosoma cruzi) [µM] | IC50 [1] [µM] | IC50 [2] [µM] | IC50 (Leishmania infantum) [µM] | inhibition at 5 µM (Plasmodium falciparum) [%] | IC50 [3] [µM]
Oc1ccc(C(=C(Cl)Cl)c2ccc(O)cc2)cc1 | > 32 | > 32 | > 32 | > 32 | 95 | > 32
